Experimental data taken from patent US12121525B2, “Methods for treating GI syndrome and graft versus host disease” (Sloan Kettering Institute for Cancer Research, priority 2007, dated 2024).

What was measured:
C57BL/6 hepatocytes [1] = assay type: cell-based
Procedure: FIGS. 16A-16F. In vivo activated allogeneic CTLs require target hepatocyte ASMase for efficient killing ex vivo. Hepatocytes, isolated as described in Example 1, were coincubated with splenic T cells harvested from lethally-irradiated wild type C57BL/6 recipients 10-14 days following transplantation of LP BM+T cells. FIG. 16A: 2×10^6 GvH-activated CTLs were coincubated with 0.5×10^6 wild type C57BL/6 or B6.MRL.1pr (FasR^−/−) hepatocytes (left panel) in complete medium for 16 hr. […] Apoptosis was quantified following fixation by nuclear bisbenzimide staining. FIG. 16B: asmase^−/− hepatocytes are resistant to apoptosis induced by GvH-activated CTLs. CTL coincubation was performed as in FIG. 16A and apoptosis was quantified 16 hr thereafter. FIG. 16C: Representative images of asmase^+/+ (top left panel) and asmase^−/− (bottom left panel) C57BL/6 hepatocytes following 10 min coincubation in suspension with 2×10^6 GvH-activated T cells. Hepatocytes were fixed and stained with DAPI and Cy-3-labelled anti-ceramide mAb as described in Example 1. Arrows indicate ceramide-rich platform generation on the outer leaflet of the plasma membrane. […] FIG. 16D: Quantification of ceramide-rich platforms in asmase^+/+ and asmase^−/− hepatocytes following incubation with 2×10^6 GvH-activated CTLs. […] Apoptosis was quantified as in FIG. 16A. […] 0.5×10^6 wild type hepatocytes, preincubated with 50 μg/mL nystatin for 30 min and resuspended in RPMI containing 1% lipid-free FBS, were coincubated with 2×10^6 GvH-activated T cells and apoptosis was quantified as in FIG. 16A. […]
To assess whether ceramide-mediated raft clustering into membrane platforms is an essential component of cytolytic T cell (CTL)-induced apoptosis of hepatocytes, we blocked raft clustering pharmacologically and examined the impact on alloactivated CTL-induced hepatocyte apoptosis in vitro. […] Co-incubation induced increased hepatocyte apoptosis from a baseline of 4.7±0.7% to 33.8±1.9% by 16 hr, as detected by nuclear morphologic changes (FIG. 16A). […]

C57BL/6 hepatocytes [2] = assay type: cell-based; settings: 200 nM, CTL-treated asmase−/− hepatocytes
Procedure: Whereas Fas-mediated apoptotic death receptor activation requires generation of ceramide-rich platforms in some cell systems, CTL-induced platform generation was assessed in asmase^+/+ and asmase^−/− hepatocytes in the ex vivo model of GvHD. Alloactivated T cells induced rapid generation of ceramide-rich platforms on the surface of the target hepatocytes 10 min following co-incubation (FIG. 16C). Platform generation increased within one minute, peaked at 10 min, and persisted for over 60 min (FIG. 16D). Fas, required for apoptosis in this system, concentrated within the ceramide-rich platform as determined by confocal microscopy.
Platforms were detected as previously described. […]; Sigma-Aldrich) for 45 min at 4° C., washed twice in PBS containing 0.1% Triton X-100 and mounted in fluorescent mounting medium (Dako, Carpenteria CA). Fluorescence was detected using an Axiovert S-100 Zeiss fluorescence microscope equipped with a SPOT digital camera. The percentage of cells containing platforms, i.e. those in which the fluorescence condenses onto less than 15% of the cell surface, was determined by counting 150-250 cells per point. Alternately, platforms were identified using a mouse monoclonal anti-ceramide antibody MID 15B4 IgM (1:50 dilution, Alexis Biochemicals), mouse monoclonal anti-Fas CH-11 IgM (1:500 dilution, Upstate Biotechnology) or polyclonal rabbit anti-ASMase antibody 1598 (1:100 dilution) and detected using Cy3-conjugated anti-mouse or anti-rabbit IgM (1:500 dilution, Roche Molecular Biochemicals), respectively. Rabbit polyclonal anti-CD46 (1:1000 dilution, Santa Cruz Biotechnology, Santa Cruz CA) was used as a negative control. In some studies, confocal images were obtained using a Leica TCS SPZ upright confocal microscope. Alternatively, 0.5×10^6hepatocytes were stimulated for the indicated times with CTLs and platform formation was assessed as described.

CCCCCCCCCCCCC/C=C/[C@@H](O)[C@H](CO)NC(=O)CCCCCCCCCCCCCCC [C16-ceramide]
rescue of CTL-induced apoptosis in nystatin-treated hepatocytes (C57BL/6 hepatocytes [1]): unable to overcome cholesterol chelation
platform formation, % of cells (C57BL/6 hepatocytes [2]): 46.3±1.3%
